Consider 1 compound from US7468364B2, “Carbapenem compounds” (Dainippon Sumitomo Pharma Co., Ltd., priority 2003, dated 2008).

The structures appear in SMILES notation.

The data set in a line: Oral absorption test in rats. The class given is in vivo. The note with it: male SD rats, oral 10 mg value/kg (as active substance). The method, then: A compound of Example 1 of the present invention and a pivaloyloxymethyl ester derivative of the compound 32, carbapenem in which para-hydroxyphenyl group is directly substituted, which is described in the Journal of Medicinal Chemistry, Vol. 30, p 871-880, 1987 (which is one of the prior arts which are most relevant to the present invention) were orally administered to mice or rats. The concentration of the active substance in serum was measured by bioassay, and absolute bioavailability was compared respectively.
The test sample was prepared in the same manner as in the oral absorption test in mice. […] To thus treated rats were orally administered the test sample (10 mg value/kg (calculated into active substance)). […] The concentration of the active substance in the serum was measured by bioassay in the same manner as in the oral absorption in mice. […]
In regard to the test sample, the value of the concentration of the active substance in serum was plotted to the hours after administration, and calculated the concentration of the active substance-area under hours curve (AUC) or calculated reducing area under hours curve (AUC) from the concentration of the active substance. On the other hand, AUC when the active substance was intravenously administered was calculated as mentioned above. […]
The absolute availability (BA) was calculated based on the above formula.

With `C[C@@H](O)[C@H]1C(=O)N2C(C(=O)OCOC(=O)C(C)(C)C)=C(c3ccc(O)cc3)C[C@H]12` [comparative compound], the oral absorbability entry is recorded as “did not show oral absorbability”.
